# Measurements taken from patent US20120244567A1, “HUMAN EMBRYONIC STEM CELLS FOR HIGH THROUGHOUT DRUG SCREENING” (BUCK INSTITUTE FOR RESEARCH ON AGING, priority 2009, published 2012).
# Counter-ions that a name gives are not always drawn. Like-named read-outs stand apart in the source and are kept apart here.
# System: dopaminergic neurons
# Procedure: RNAs isolated from NSCs and neurons with and without drug treatments were hybridized to Illumina HumanRef-8 BeadChip (Illumina, Inc., San Diego, Calif., performed by Microarray core facility at the Burnham Institute for Medical Research). The Illumina array data were normalized by the quantile method, and then transformed log 2 ratio values for a zero mean for expression values of each gene across all samples. The statistical and bioinformatics analyses were conducted by using R and the bioconductor package (www.bioconductor.org). The gene set enrichment analysis was conducted using the GSEA software (www.broad.mit.edu/gsea).
# [1] = Amiloride sensitive Na channels, 4 hours of exposure
# [2] = Amine transporters, 4 hours of exposure
# [3] = Ca activated K channels, 4 hours of exposure
# [4] = Calcium channels, 4 hours of exposure
# [5] = Cl channels, 4 hours of exposure
# [6] = Delayed rectifier K channels, 4 hours of exposure
# [7] = H ion transporters, 4 hours of exposure
# [8] = Rectifier K channels, 4 hours of exposure
# [9] = Voltage gated Na channels, 4 hours of exposure
structure (smiles),measurement,setting,value
CCCCc1oc2ccccc2c1C(=O)c1cc(I)c(OCCN(CC)CC)c(I)c1 [Amiodarone Hydrochloride],"ACCN1 gene expression, Treated DA Neuron",[1],387.4
same,"ACCN2 gene expression, Treated DA Neuron",[1],862.7
same,"ACCN3 gene expression, Treated DA Neuron",[1],35.7
same,"SLC1A2 gene expression, Treated DA Neuron",[2],809.7
same,"SLC1A3 gene expression, Treated DA Neuron",[2],2926
same,"SLC6A3 gene expression, Treated DA Neuron",[2],23.4
same,"SLC6A9 gene expression, Treated DA Neuron",[2],36570.5
same,"SLC6A12 gene expression, Treated DA Neuron",[2],10.8
same,"ATP1A1 gene expression, Treated DA Neuron","Amine transporters, first line for this gene, 4 hours of exposure",426.9
same,"ATP1A1 gene expression, Treated DA Neuron","Amine transporters, second line for this gene, 4 hours of exposure",471
same,"KCNMB1 gene expression, Treated DA Neuron",[3],44.8
same,"KCNN1 gene expression, Treated DA Neuron",[3],48.4
same,"KCNN2 gene expression, Treated DA Neuron",[3],55.6
same,"KCNN3 gene expression, Treated DA Neuron",[3],181.7
same,"CACNA1A gene expression, Treated DA Neuron",[4],64.4
same,"CACNA1C gene expression, Treated DA Neuron",[4],146.9
same,"CACNB2 gene expression, Treated DA Neuron",[4],155.2
same,"CACNG2 gene expression, Treated DA Neuron",[4],123.8
same,"CLCN2 gene expression, Treated DA Neuron",[5],24
same,"CLCN3 gene expression, Treated DA Neuron",[5],541.2
same,"CLCN6 gene expression, Treated DA Neuron",[5],998.5
same,"CLCN7 gene expression, Treated DA Neuron",[5],1261
same,"CLIC1 gene expression, Treated DA Neuron",[5],22.9
same,"KCNA5 gene expression, Treated DA Neuron",[6],99.9
same,"KCNB1 gene expression, Treated DA Neuron",[6],145.4
same,"KCNB2 gene expression, Treated DA Neuron",[6],94.5
same,"ATP5B gene expression, Treated DA Neuron",[7],5217.1
same,"ATP6V0A2 gene expression, Treated DA Neuron",[7],131.3
same,"ATP6V0D1 gene expression, Treated DA Neuron",[7],2920.7
same,"ATP6V1A gene expression, Treated DA Neuron",[7],2621.5
same,"ATP6V1B2 gene expression, Treated DA Neuron",[7],724.8
same,"SLC2A1 gene expression, Treated DA Neuron",[7],87.1
same,"SLC2A11 gene expression, Treated DA Neuron",[7],.9
same,"SLC35B1 gene expression, Treated DA Neuron",[7],1450.4
same,"KCNC4 gene expression, Treated DA Neuron",[8],58.7
same,"KCND2 gene expression, Treated DA Neuron",[8],269.9
same,"KCNF1 gene expression, Treated DA Neuron",[8],479.7
same,"KCNG1 gene expression, Treated DA Neuron",[8],351
same,"KCNJ4 gene expression, Treated DA Neuron",[8],66.1
same,"KCNJ6 gene expression, Treated DA Neuron",[8],297.7
same,"KCNJ11 gene expression, Treated DA Neuron",[8],44.4
same,"KCNQ3 gene expression, Treated DA Neuron",[8],23.2
same,"KCNQ2 gene expression, Treated DA Neuron","Rectifier K channels, first line for this gene, 4 hours of exposure",1753.5
same,"KCNQ2 gene expression, Treated DA Neuron","Rectifier K channels, second line for this gene, 4 hours of exposure",434.4
same,"SCN1A gene expression, Treated DA Neuron",[9],115.6
same,"SCN3A gene expression, Treated DA Neuron",[9],60.4
same,"SCN9A gene expression, Treated DA Neuron",[9],245.7
same,"AFF1 expression, Treated Neuron",four hours after exposure,1
same,"ARID3A expression, Treated Neuron",four hours after exposure,201
same,"ASCL2 expression, Treated Neuron",four hours after exposure,1
same,"DDIT3 expression, Treated Neuron",four hours after exposure,170
same,"DLX2 expression, Treated Neuron",four hours after exposure,1
same,"E2F2 expression, Treated Neuron",four hours after exposure,63.2
same,"E2F7 expression, Treated Neuron",four hours after exposure,43
same,"E2F8 expression, Treated Neuron",four hours after exposure,1
same,"EGR1 expression, Treated Neuron",four hours after exposure,109
same,"EGR2 expression, Treated Neuron",four hours after exposure,1
same,"ELF4 expression, Treated Neuron",four hours after exposure,1
same,"ELF5 expression, Treated Neuron",four hours after exposure,1
same,"ELK3 expression, Treated Neuron",four hours after exposure,1
same,"ELK4 expression, Treated Neuron",four hours after exposure,1
same,"EN1 expression, Treated Neuron",four hours after exposure,1
same,"ERG expression, Treated Neuron",four hours after exposure,1
same,"ETS1 expression, Treated Neuron",four hours after exposure,1
same,"ETV1 expression, Treated Neuron",four hours after exposure,1
same,"ETV4 expression, Treated Neuron",four hours after exposure,1
same,"FLI1 expression, Treated Neuron",four hours after exposure,11.3
same,"FOS expression, Treated Neuron",four hours after exposure,1980
same,"FOSB expression, Treated Neuron",four hours after exposure,346
same,"FOXA2 expression, Treated Neuron",four hours after exposure,1
same,"FOXC1 expression, Treated Neuron",four hours after exposure,32.6
same,"FOXD1 expression, Treated Neuron",four hours after exposure,1
same,"FOXF2 expression, Treated Neuron",four hours after exposure,1
same,"FOXL2 expression, Treated Neuron",four hours after exposure,1
same,"FOXM1 expression, Treated Neuron",four hours after exposure,27.7
same,"GATA2 expression, Treated Neuron",four hours after exposure,1
same,"GLI2 expression, Treated Neuron",four hours after exposure,5.2
same,"HCLS1 expression, Treated Neuron",four hours after exposure,1
same,"HEY2 expression, Treated Neuron",four hours after exposure,1
same,"HIRA expression, Treated Neuron",four hours after exposure,24.2
same,"HMGB2 expression, Treated Neuron",four hours after exposure,163
same,"HOXA13 expression, Treated Neuron",four hours after exposure,1
same,"HOXB1 expression, Treated Neuron",four hours after exposure,1
same,"HOXB2 expression, Treated Neuron",four hours after exposure,24
same,"HOXB3 expression, Treated Neuron",four hours after exposure,1
same,"HOXB4 expression, Treated Neuron",four hours after exposure,1
same,"HOXB5 expression, Treated Neuron",four hours after exposure,1
same,"HOXD3 expression, Treated Neuron",four hours after exposure,1
same,"L3MBTL expression, Treated Neuron",four hours after exposure,97.7
same,"LHX8 expression, Treated Neuron",four hours after exposure,1
same,"MEF2C expression, Treated Neuron",four hours after exposure,49.8
same,"MEOX1 expression, Treated Neuron",four hours after exposure,1
same,"MSX2 expression, Treated Neuron",four hours after exposure,1
same,"MYEF2 expression, Treated Neuron",four hours after exposure,25.3
same,"NFATC3 expression, Treated Neuron",four hours after exposure,1
same,"NFATC4 expression, Treated Neuron",four hours after exposure,1
same,"NFKB2 expression, Treated Neuron",four hours after exposure,5.3
same,"NR1D2 expression, Treated Neuron",four hours after exposure,1
same,"NR2C2 expression, Treated Neuron",four hours after exposure,5.7
same,"NR4A2 expression, Treated Neuron",four hours after exposure,212
same,"NRK expression, Treated Neuron",four hours after exposure,1
same,"PAX8 expression, Treated Neuron",four hours after exposure,1
same,"PBX2 expression, Treated Neuron",four hours after exposure,1
same,"PRDM1 expression, Treated Neuron",four hours after exposure,1
same,"PRRX2 expression, Treated Neuron",four hours after exposure,1
same,"RELB expression, Treated Neuron",four hours after exposure,31.9
same,"RUNX1 expression, Treated Neuron",four hours after exposure,1
same,"SALL1 expression, Treated Neuron",four hours after exposure,1
same,"SIX4 expression, Treated Neuron",four hours after exposure,5.7
same,"STAT6 expression, Treated Neuron",four hours after exposure,1
same,"TAF5L expression, Treated Neuron",four hours after exposure,17.5
same,"TAF13 expression, Treated Neuron",four hours after exposure,1
same,"TBX2 expression, Treated Neuron",four hours after exposure,1
same,"TEAD4 expression, Treated Neuron",four hours after exposure,1
same,"TEF expression, Treated Neuron",four hours after exposure,23.5
same,"TGIF1 expression, Treated Neuron",four hours after exposure,1
same,"TP53 expression, Treated Neuron",four hours after exposure,23.7
same,"ZNF85 expression, Treated Neuron",four hours after exposure,5.6
same,"ZNF197 expression, Treated Neuron",four hours after exposure,5.1
same,"ZNF274 expression, Treated Neuron",four hours after exposure,1
same,"ZNF367 expression, Treated Neuron",four hours after exposure,1
same,"ZSCAN29 expression, Treated Neuron",four hours after exposure,1
